Experiments:
Type in all cases: in vivo
corn (Zea mays) [1] = assay: Test A1 postemergence, corn; conditions: Postemergence
Excerpt: (§1) Seeds of plant species selected from, blackgrass (Alopecurus myosuroides), corn (Zea mays), Foxtail, Giant (giant foxtail, Setaria faberi), goosegrass (Eleusine indica), kochia (Bassia scoparia), Oat, Wild (wild oat, Avena fatua), Pigweed, Palmer (palmer amaranth, palmer pigweed, Amaranthus palmeri), ragweed (common ragweed, Ambrosia artemisiifolia), Ryegrass, Italian (Italian ryegrass, Lolium multiflorum), soybean (Glycine max), and wheat (Triticum aestivum) were planted into a blend of loam soil and sand and treated preemergence with a directed soil spray using test chemicals formulated in a non-phytotoxic solvent mixture which included a surfactant. At the same time, plants selected from these crop and weed species and also galium (catchweed bedstraw, Galium aparine) and horseweed (Erigeron canadensis) were planted in pots containing the same blend of loam soil and sand and treated with postemergence applications of test chemicals formulated in the same manner. Plants ranged in height from 2 to 10 cm and were in the one- to two-leaf stage for the postemergence treatment. […] A dash (-) response means no test result.

[2] = tested on: blackgrass (Alopecurus myosuroides); assay: Test A1 postemergence, blackgrass; conditions: Postemergence, 0 to 100 scale (0 no effect, 100 complete control)
Excerpt: as §1

rice (Oryza sativa) = assay: Test B1 flooded paddy test, rice; conditions: 250 g ai/ha, Flood, applied to paddy water, 2-leaf stage, visually evaluated after 10 to 14 days
Excerpt: (§2) A dash (-) response means no test result.

[3] = tested on: Ryegrass, Italian (Italian ryegrass, Lolium multiflorum); assay: Test A1 postemergence, Ryegrass, Italian; conditions: Postemergence
Excerpt: as §1

[4] = tested on: Pigweed, Palmer (palmer amaranth, palmer pigweed, Amaranthus palmeri); assay: Test A1 postemergence, Pigweed, Palmer; conditions: Postemergence
Excerpt: as §1

[5] = tested on: blackgrass (Alopecurus myosuroides); assay: Test A1 preemergence, blackgrass
Excerpt: as §1

[6] = tested on: ragweed (common ragweed, Ambrosia artemisiifolia); assay: Test A1 preemergence, ragweed
Excerpt: as §1

[7] = tested on: Foxtail, Giant (giant foxtail, Setaria faberi); assay: Test A1 postemergence, Foxtail, Giant; conditions: Postemergence
Excerpt: as §1

[8] = tested on: ragweed (common ragweed, Ambrosia artemisiifolia); assay: Test A1 postemergence, ragweed; conditions: Postemergence
Excerpt: as §1

[9] = tested on: Ryegrass, Italian (Italian ryegrass, Lolium multiflorum); assay: Test A1 preemergence, Ryegrass, Italian
Excerpt: as §1

[10] = tested on: Foxtail, Giant (giant foxtail, Setaria faberi); assay: Test A1 preemergence, Foxtail, Giant
Excerpt: as §1

soybean (Glycine max) [11] = assay: Test A1 postemergence, soybean; conditions: Postemergence
Excerpt: as §1

[12] = tested on: Oat, Wild (wild oat, Avena fatua); assay: Test A1 postemergence, Oat, Wild; conditions: Postemergence
Excerpt: as §1

[13] = tested on: goosegrass (Eleusine indica); assay: Test A1 postemergence, goosegrass; conditions: Postemergence
Excerpt: as §1

[14] = tested on: goosegrass (Eleusine indica); assay: Test A1 preemergence, goosegrass
Excerpt: as §1

[15] = tested on: wheat (Triticum aestivum); assay: Test A1 preemergence, wheat
Excerpt: as §1

kochia (Bassia scoparia) [16] = assay: Test A1 preemergence, kochia
Excerpt: as §1

[17] = tested on: Pigweed, Palmer (palmer amaranth, palmer pigweed, Amaranthus palmeri); assay: Test A1 preemergence, Pigweed, Palmer
Excerpt: as §1

[18] = tested on: ducksalad (Heteranthera limosa); assay: Test B1 flooded paddy test, ducksalad; conditions: 250 g ai/ha, Flood, applied to paddy water, 2-leaf stage, visually evaluated after 10 to 14 days
Excerpt: as §2

kochia (Bassia scoparia) [19] = assay: Test A1 postemergence, kochia; conditions: Postemergence
Excerpt: as §1

[20] = tested on: Oat, Wild (wild oat, Avena fatua); assay: Test A1 preemergence, Oat, Wild
Excerpt: as §1

[21] = tested on: galium (catchweed bedstraw, Galium aparine); assay: Test A1 postemergence, galium; conditions: Postemergence
Excerpt: as §1

[22] = tested on: barnyardgrass (Echinochloa crus-galli); assay: Test B1 flooded paddy test, barnyardgrass; conditions: 250 g ai/ha, Flood, applied to paddy water, 2-leaf stage, visually evaluated after 10 to 14 days
Excerpt: as §2

soybean (Glycine max) [23] = assay: Test A1 preemergence, soybean
Excerpt: as §1

[24] = tested on: wheat (Triticum aestivum); assay: Test A1 postemergence, wheat; conditions: Postemergence
Excerpt: as §1

corn (Zea mays) [25] = assay: Test A1 preemergence, corn
Excerpt: as §1

[26] = 31 g ai/ha, 0 to 100 scale (0 no effect, 100 complete control), 10 days
[27] = 31 g ai/ha, 0 to 100 scale (0 no effect, 100 complete control)
[28] = 125 g ai/ha, 0 to 100 scale, 0 no effect, 100 complete control

C#CCN(C)C(=O)c1cc(NS(=O)(=O)C(F)(F)F)c(Cl)c(F)c1C [Compound 337]
Plant response rating, Corn (corn (Zea mays) [1]; [26]): 30
Plant response rating, Corn (corn (Zea mays) [1]; 125 g ai/ha, 0 to 100 scale): 40
Plant response rating, Blackgrass ([2]; 31 g ai/ha, 10 days): 0
Plant response rating, Blackgrass ([2]; 125 g ai/ha): 30
Plant response rating, Rice (0 to 100 scale, 0 is no effect, 100 is complete control) (rice (Oryza sativa)): 25
Plant response rating, Ryegrass, Italian [3, 26]: 0
Plant response rating, Ryegrass, Italian ([3]; 125 g ai/ha, 0 to 100 scale): 20
Plant response rating, Pigweed, Palmer [4, 26]: 30
Plant response rating, Pigweed, Palmer ([4]; 125 g ai/ha, 0 to 100 scale): 50
Plant response rating, Blackgrass [5, 27]: 40
Plant response rating, Blackgrass [5, 28]: 60
Plant response rating, Ragweed [6, 27]: 70
Plant response rating, Ragweed [6, 28]: 90
Plant response rating, Foxtail, Giant [7, 26]: 0
Plant response rating, Foxtail, Giant ([7]; 125 g ai/ha, 0 to 100 scale): 90
Plant response rating, Ragweed [8, 26]: 50
Plant response rating, Ragweed ([8]; 125 g ai/ha, 0 to 100 scale): 90
Plant response rating, Ryegrass, Italian [9, 27]: 30
Plant response rating, Ryegrass, Italian [9, 28]: 100
Plant response rating, Foxtail, Giant [10, 27]: 20
Plant response rating, Foxtail, Giant [10, 28]: 100
Plant response rating, Soybean (soybean (Glycine max) [11]; [26]): 50
Plant response rating, Soybean (soybean (Glycine max) [11]; 125 g ai/ha, 0 to 100 scale): 70
Plant response rating, Oat, Wild [12, 26]: 0
Plant response rating, Oat, Wild ([12]; 125 g ai/ha, 0 to 100 scale): 20
Plant response rating, Goosegrass [13, 26]: 0
Plant response rating, Goosegrass ([13]; 125 g ai/ha, 0 to 100 scale): 90
Plant response rating, Goosegrass [14, 27]: 50
Plant response rating, Goosegrass [14, 28]: 100
Plant response rating, Wheat [15, 27]: 10
Plant response rating, Wheat [15, 28]: 60
Plant response rating, Kochia (kochia (Bassia scoparia) [16]; [27]): 20
Plant response rating, Kochia (kochia (Bassia scoparia) [16]; [28]): 50
Plant response rating, Pigweed, Palmer [17, 27]: 40
Plant response rating, Pigweed, Palmer [17, 28]: 100
Plant response rating, Ducksalad (0 to 100 scale, 0 is no effect, 100 is complete control) [18]: 65
Plant response rating, Kochia (kochia (Bassia scoparia) [19]; [26]): 40
Plant response rating, Kochia (kochia (Bassia scoparia) [19]; 125 g ai/ha, 0 to 100 scale): 70
Plant response rating, Oat, Wild [20, 27]: 0
Plant response rating, Oat, Wild [20, 28]: 20
Plant response rating, Galium [21, 26]: 70
Plant response rating, Galium ([21]; 125 g ai/ha, 0 to 100 scale): 100
Plant response rating, Barnyardgrass (0 to 100 scale, 0 is no effect, 100 is complete control) [22]: 0
Plant response rating, Soybean (soybean (Glycine max) [23]; [27]): 40
Plant response rating, Soybean (soybean (Glycine max) [23]; [28]): 90
Plant response rating, Wheat [24, 26]: 0
Plant response rating, Wheat ([24]; 125 g ai/ha, 0 to 100 scale): 30
Plant response rating, Corn (corn (Zea mays) [25]; [27]): 0
Plant response rating, Corn (corn (Zea mays) [25]; [28]): 70

— patent US20230278972A1, “SUBSTITUTED HALOALKYL SULFONANILIDE HERBICIDES” (FMC Corporation, priority 2020, published 2023)
